Reference: patent US9554990B2, “Cholecystokinin secretion-promoting composition” (J-OIL MILLS, INC., priority 2012, dated 2017)

What was measured:
[1] = test system: Mouse intestinal CCK-producing cell line STC-1; experiment: Confirmation test of CCK secretion-stimulating activity (CCK in supernatant, enzyme immunoassay); type: cell-based; design: key to CCK secretion-promoting activity Significant difference from vehicle Group 3 / CCK secretion-promoting activity Significant difference from vehicle Group 4 / CCK secretion-promoting activity Significant difference from vehicle Group 1 / CCK secretion-promoting activity Significant difference from vehicle Group 5: *: A significant difference (P < 0.05) was found; —: No significant difference was found; details: for CCK secretion-promoting activity Significant difference from vehicle Group 1: experimental group 1; for CCK secretion-promoting activity Significant difference from vehicle Group 3: experimental group 3; for CCK secretion-promoting activity Significant difference from vehicle Group 4: experimental group 4; for CCK secretion-stimulating activity (in words): single test material
Description: As a condition for maximizing the secretion amount of CCK in a cell test system, 70 mM KCl (positive control) causing hormone release by depolarization was prepared.
Since the number of materials that can be tested at once is restricted, the test materials were divided into five groups as shown in Table 1. In order to solve the discontinuity between experimental groups, every group included trans,trans-2,4-decadienal. Each test material was tested three times, and the average value of the results was calculated.
The test materials were each dissolved in ethanol, and each solution was diluted with Hepes buffer (140 mM NaCl, 4.5 mM KCl, 20 mM Hepes, 1.2 mM CaCl2, 1.2 mM MgCl2, and 10 mM D-glucose, pH 7.4) to give a 0.1 vol % ethanol solution, which was used as the evaluation solution.
Mouse intestinal CCK-producing cell line STC-1 was cultured in a 48-well plate for two to three days until subconfluent in a Dulbecco's modified Eagle's medium containing 10% bovine fetal serum at 37° C. in the presence of 5% CO2. After the wells were washed with Hepes buffer, 100 μL of the evaluation solution containing 100 μM of a test material was added to a well, followed by incubation at 37° C. for 60 minutes. The supernatant was collected and was centrifuged (800×g, 5 min, 4° C.) to precipitate the exfoliated cells. The resulting supernatant (80 μL) was collected and was cryopreserved. The concentration of CCK in the supernatant was measured with a commercially available enzyme immunoassay kit (manufactured by Phoenix Pharmaceuticals, Inc.).
In order to investigate the change in the secretion amount of CCK by addition of a test material to the cells in a general condition, a value obtained by subtracting the measured value of the vehicle from the measured value of a sample was used as the true value, and the score of the CCK secretion-stimulating activity was determined by dividing the true value by the value of 70 mM KCl as a control. The variance was analyzed for each experimental group. The difference in variance between an experimental group and the vehicle was examined for determining whether there was a significant difference (P<0.05). […]

[2] = swallowing; cited from earlier work
[3] = Table 2A, 100 μM test material, 60 minutes, STC-1, (sample minus vehicle) divided by value of 70 mM KCl control
[4] = Table 2B, 100 μM test material, 60 minutes, STC-1, (sample minus vehicle) divided by value of 70 mM KCl control
[5] = Table 3, single ingredient (100 μM) or control, relative to 70 mM KCl

[Cl-].[K+] [70 mM KCl, KCl]
CCK secretion-promoting activity Score [1, 3]: 1 | CCK secretion-promoting activity Score [1, 4]: 1 | CCK secretion-promoting activity Score [1, 5]: 1

CCCC=O.CCCC=O [Comparative Example 1, butanal (butyraldehyde)]
CCK secretion-promoting activity Score [1, 4]: 0.017 | CCK secretion-promoting activity Significant difference from vehicle Group 1 ([1]; Table 2B, 100 μM): —

CC/C=C\CCC=O [Comparative Example 11, cis-4-heptenal]
CCK secretion-promoting activity Score [1, 4]: −0.001

C/C=C/C=C/C=O [Example 1, trans,trans-2,4-hexadienal]
CCK secretion-promoting activity Score [1, 3]: 0.840 | CCK secretion-promoting activity Significant difference from vehicle Group 1 ([1]; Table 2A, 100 μM): * (A significant difference (P < 0.05) was found)

CC/C=C/C=C/C=O [Example 2, trans,trans-2,4-heptadienal]
CCK secretion-promoting activity Score [1, 3]: 0.885 | CCK secretion-promoting activity Significant difference from vehicle Group 1 ([1]; Table 2A, 100 μM): * (A significant difference (P < 0.05) was found)

CCCC/C=C/C=C/C=O [Example 3, trans,trans-2,4-nonadienal]
CCK secretion-promoting activity Score [1, 3]: 0.975 | CCK secretion-promoting activity Significant difference from vehicle Group 1 ([1]; Table 2A, 100 μM): * (A significant difference (P < 0.05) was found)

CCCCC/C=C/C=C/C=O [Example 4, trans,trans-2,4-decadienal]
CCK secretion-promoting activity Score [1, 3]: 1.088 | CCK secretion-promoting activity Significant difference from vehicle Group 1 ([1]; Table 2A, 100 μM): * (A significant difference (P < 0.05) was found) | CCK secretion-promoting activity Significant difference from vehicle Group 3 ([1]; Table 2A, 100 μM): * (A significant difference (P < 0.05) was found) | CCK secretion-promoting activity Significant difference from vehicle Group 4 ([1]; Table 2A, 100 μM): * (A significant difference (P < 0.05) was found) | CCK secretion-promoting activity Significant difference from vehicle ([1]; Table 3, single ingredient (100 μM)): * (A significant difference (P < 0.05) was found) | CCK secretion-promoting activity Score [1, 5]: 1.088 | CCK secretion-stimulating activity (in words) ([1]; STC-1): the highest

CCCCCCC/C=C/C=C/C=O [Example 5, trans,trans-2,4-dodecadienal]
CCK secretion-promoting activity Score [1, 3]: 0.720

C/C=C/C=O.C/C=C/C=O [Example 6, trans-2-butenal (crotonaldehyde)]
CCK secretion-promoting activity Score [1, 3]: 0.644 | CCK secretion-promoting activity Significant difference from vehicle Group 1 ([1]; Table 2A, 100 μM): * (A significant difference (P < 0.05) was found)

CCCC/C=C/C=O [Example 7, trans-2-heptenal]
CCK secretion-promoting activity Score [1, 3]: 0.624 | CCK secretion-promoting activity Significant difference from vehicle Group 1 ([1]; Table 2A, 100 μM): * (A significant difference (P < 0.05) was found)

CCCCC/C=C/C=O [Example 8, trans-2-octenal]
CCK secretion-promoting activity Score [1, 3]: 0.698 | CCK secretion-promoting activity Significant difference from vehicle Group 4 ([1]; Table 2A, 100 μM): * (A significant difference (P < 0.05) was found)

CCCCCC/C=C/C=O [Example 9, trans-2-nonenal]
CCK secretion-promoting activity Score [1, 3]: 0.491 | CCK secretion-promoting activity Significant difference from vehicle Group 3 ([1]; Table 2A, 100 μM): —

CCCCC/C=C/CCC=O [Example 10, trans-4-decenal]
CCK secretion-promoting activity Score [1, 3]: 0.441

CCCCC/C=C\CCC=O [Example 11, cis-4-decenal]
CCK secretion-promoting activity Score [1, 3]: 0.377 | CCK secretion-promoting activity Significant difference from vehicle Group 4 ([1]; Table 2A, 100 μM): —

C=CC(=O)O [Example 12, acrylic acid]
CCK secretion-promoting activity Score [1, 3]: 0.957 | CCK secretion-promoting activity Significant difference from vehicle Group 4 ([1]; Table 2A, 100 μM): * (A significant difference (P < 0.05) was found)

CCCCCCCC=O [compound 2, octanal]
CCK secretion-promoting activity Score [1, 4]: −0.004 | CCK secretion-promoting activity Significant difference from vehicle Group 3 ([1]; Table 2B, 100 μM): —

CCCCCCCCC=O [compound 3, nonanal]
CCK secretion-promoting activity Score [1, 4]: −0.003 | CCK secretion-promoting activity Significant difference from vehicle Group 1 ([1]; Table 2B, 100 μM): —

CCCCCCCCCC=O [compound 4, decanal]
CCK secretion-promoting activity Score [1, 4]: 0.042

CCCCCCCCCCC=O [compound 5, undecanal]
CCK secretion-promoting activity Score [1, 4]: 0.189

CCCCCCCCCCCC=O [compound 6, dodecanal]
CCK secretion-promoting activity Score [1, 4]: −0.093

CCCCCCCCCCCCC=O [compound 7, tridecanal]
CCK secretion-promoting activity Score [1, 4]: 0.049

CCCCCCC/C=C/C=O [compound 8, trans-2-decenal]
CCK secretion-promoting activity Score [1, 4]: 0.046

CCCCCCCC/C=C/C=O [compound 9, trans-2-undecenal]
CCK secretion-promoting activity Score [1, 4]: −0.137 | CCK secretion-promoting activity Significant difference from vehicle Group 3 ([1]; Table 2B, 100 μM): —

CCCCCCCCC/C=C/C=O [compound 10, trans-2-dodecenal]
CCK secretion-promoting activity Score [1, 4]: −0.319 | CCK secretion-promoting activity Significant difference from vehicle Group 3 ([1]; Table 2B, 100 μM): —

CC/C=C\CCCCC=O [compound 12, cis-6-nonenal]
CCK secretion-promoting activity Score [1, 4]: −0.648 | CCK secretion-promoting activity Significant difference from vehicle Group 3 ([1]; Table 2B, 100 μM): —

CC/C=C\CCCCCC=O [compound 13, cis-7-decenal]
CCK secretion-promoting activity Score [1, 4]: 0.274

C=CCCCCCCCCC=O [compound 14, trans-10-undecenal]
CCK secretion-promoting activity Score [1, 4]: −0.458 | CCK secretion-promoting activity Significant difference from vehicle Group 3 ([1]; Table 2B, 100 μM): —

C=CCO [compound 15, 2-propen-1-ol]
CCK secretion-promoting activity Score [1, 4]: 0.557 | CCK secretion-promoting activity Significant difference from vehicle Group 4 ([1]; Table 2B, 100 μM): —

CCCCC/C=C/CO [compound 16, trans-2-octen-1-ol]
CCK secretion-promoting activity Score [1, 4]: 0.321 | CCK secretion-promoting activity Significant difference from vehicle Group 4 ([1]; Table 2B, 100 μM): —

CCCCC/C=C\CCCO [compound 17, cis-4-decen-1-ol]
CCK secretion-promoting activity Score [1, 4]: −0.171 | CCK secretion-promoting activity Significant difference from vehicle Group 4 ([1]; Table 2B, 100 μM): —

CCCCCCCCO [compound 18, 1-octanol]
CCK secretion-promoting activity Score [1, 4]: −0.134

CCCCCCCCCCO [compound 19, n-decyl alcohol]
CCK secretion-promoting activity Score [1, 4]: 0.070

CCCCCCCCCCCCO [compound 20, dodecyl alcohol]
CCK secretion-promoting activity Score [1, 4]: −0.304

CCCCCCCCCCCCCO [compound 21, n-tridecyl alcohol]
CCK secretion-promoting activity Score [1, 4]: −0.225

CCCCCC/C=C/C(C)=O [compound 22, trans-3-decen-2-one]
CCK secretion-promoting activity Score [1, 4]: 0.169

CCCCC/C=C/C(=O)O [compound 23, trans-2-octenoic acid]
CCK secretion-promoting activity Score [1, 4]: 0.146 | CCK secretion-promoting activity Significant difference from vehicle Group 4 ([1]; Table 2B, 100 μM): —

CCCCCCCC(=O)O [compound 24, n-octanoic acid]
CCK secretion-promoting activity Score [1, 4]: −0.140

CCCCCCCCCC(=O)O [compound 25, decanoic acid]
CCK secretion-promoting activity Score [1, 4]: −0.207

CCCCCCCCCCCC(=O)O [compound 26, lauric acid]
CCK secretion-promoting activity Score [1, 4]: −0.225

CCCCCCCCCCCCC(=O)O [compound 27, n-tridecanoic acid]
CCK secretion-promoting activity Score [1, 4]: −0.234

CCCCCCCCCC [compound 28, decane]
CCK secretion-promoting activity Score [1, 4]: −0.224

C/C=C\CCCCCCC [compound 29, cis-2-decene]
CCK secretion-promoting activity Score [1, 4]: −0.208

C=CC=O [propenal]
GHS class of acute toxicity [2]: class 2 | CCK secretion-stimulating activity (in words) ([1]; STC-1): has a CCK-secreting activity

trans,trans-1,9-decadiene [compound 30]
CCK secretion-promoting activity Score [1, 4]: −0.211 | CCK secretion-promoting activity Significant difference from vehicle Group 5 ([1]; Table 2B, experimental group 5, 100 μM): —
